Results: PubChem BioAssay (NCI)
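Protocol summary: plate cells (96-well), add compound at 5 concentrations, incubate 48 h, interpolate endpoints linearly. TGI: concentration producing complete growth inhibition.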

What was measured:
Assay in all cases: DTP human tumour cell line panel, 48 h
M19-MEL melanoma = system: M19-MEL melanoma
DMS 273 small cell lung = system: DMS 273 small cell lung
SNB-78 CNS = system: SNB-78 CNS
KM20L2 colon = system: KM20L2 colon
LXFL 529 NSCLC = system: LXFL 529 NSCLC
DMS 114 small cell lung = system: DMS 114 small cell lung
DLD-1 colon = system: DLD-1 colon
SW-620 colon = system: SW-620 colon
HOP-18 NSCLC = system: HOP-18 NSCLC
XF 498 CNS = system: XF 498 CNS
RXF-631 renal = system: RXF-631 renal

## COc1ccccc1NC(=O)C(=O)C(c1cnc2ccc([N+](=O)[O-])cc2n1)[N+](=O)[O-] (stereo not given)
M19-MEL melanoma
  TGI: > 100 µM
DMS 273 small cell lung
  TGI: > 100 µM
SNB-78 CNS
  TGI: > 100 µM
KM20L2 colon
  TGI: > 100 µM
LXFL 529 NSCLC
  TGI: > 100 µM
DMS 114 small cell lung
  TGI: 66.4 µM
DLD-1 colon
  TGI: > 100 µM
SW-620 colon
  TGI: > 100 µM
HOP-18 NSCLC
  TGI: > 100 µM
XF 498 CNS
  TGI: > 100 µM
RXF-631 renal
  TGI: > 100 µM

## Cc1c2c(n3c(nc4ccccc43)c1C#N)NCC2
SW-620 colon
  TGI: > 10 µM

## O=C1Nc2n[nH]c(=S)n2NC12c1ccccc1-c1ccccc12
SW-620 colon
  TGI: > 100 µM

## CC(c1ccccc1)n1c2ccccc2c2c(N)ncnc21 (stereo not given)
SW-620 colon
  TGI: 47.4 µM

## COc1cc2cnc3c4cc(O)ccc4ccc3c2cc1OC
M19-MEL melanoma
  TGI: > 100 µM
KM20L2 colon
  TGI: > 100 µM
LXFL 529 NSCLC
  TGI: > 100 µM
DMS 114 small cell lung
  TGI: 39.4 µM
DLD-1 colon
  TGI: > 100 µM
SW-620 colon
  TGI: > 100 µM
HOP-18 NSCLC
  TGI: > 100 µM

## COc1cc2c(c(OC)c1)C(=O)C(=O)C(CC1(C)OCCCO1)=C2
M19-MEL melanoma
  TGI: 6.18 µM
DMS 273 small cell lung
  TGI: 28.4 µM
SNB-78 CNS
  TGI: 26 µM
KM20L2 colon
  TGI: 31.9 µM
LXFL 529 NSCLC
  TGI: 14.6 µM
DMS 114 small cell lung
  TGI: 12.7 µM
DLD-1 colon
  TGI: 8.45 µM
SW-620 colon
  TGI: 3.23 µM
HOP-18 NSCLC
  TGI: 24.5 µM
XF 498 CNS
  TGI: 25.6 µM
RXF-631 renal
  TGI: 36.6 µM

## CCCC1(N2C(=O)c3ccc4c5c(ccc(c35)C2=O)N(C2(CCC)CCCCC2)C4=O)CCCCC1
SW-620 colon
  TGI: > 100 µM

## Cn1c2ccccc2c(=NNc2ccc(S(=O)(=O)N=C(N)N)cc2)c2ccccc21
SW-620 colon
  TGI: 21.1 µM

## CC(C)NC(=O)OCc1c(COC(=O)NC(C)C)c(-c2cc[n+](COC(=O)Cc3ccccc3)cc2)n2c1CCC2
SW-620 colon
  TGI: > 100 µM

## O=C1CS(=O)c2ccccc2N1 (stereo not given)
M19-MEL melanoma
  TGI: > 100 µM
DMS 273 small cell lung
  TGI: 33.9 µM
SNB-78 CNS
  TGI: > 100 µM
KM20L2 colon
  TGI: > 100 µM
LXFL 529 NSCLC
  TGI: > 100 µM
DLD-1 colon
  TGI: > 100 µM
HOP-18 NSCLC
  TGI: > 100 µM
XF 498 CNS
  TGI: > 100 µM
RXF-631 renal
  TGI: > 100 µM

## O=c1[nH]nc(-c2ccccc2)n1-n1cccc1
SW-620 colon
  TGI: > 100 µM

## COc1c(N2CCCCC2)c2c(=O)c3ccccc3oc2c2c3ccccc3n(C)c12
SW-620 colon
  TGI: > 100 µM

## COc1ccc2nc3c([N+](=O)[O-])ccc4c3c(c2c1)N=CN4CCN(C)C
SW-620 colon
  TGI: > 42.6 µM

## O=C1/C(=C/c2cccc([N+](=O)[O-])c2)Cc2ccccc21
SW-620 colon
  TGI: > 100 µM

## O=C1NC(NNc2ccccc2)=N/C1=C\c1ccco1
SW-620 colon
  TGI: 60.7 µM

## c1cc2cc(Cc3ccc4[nH]ccc4c3)ccc2[nH]1
SW-620 colon
  TGI: 93.3 µM

## O=C(Cn1c2ccc(Br)cc2c2nc3ccccc3nc21)N1CCOCC1
SW-620 colon
  TGI: > 100 µM

## O=C(NCCCN1CCN(CCCNC(=O)c2cc(-c3ccccc3)nc3ccccc23)CC1)c1cc(-c2ccccc2)nc2ccccc12
SW-620 colon
  TGI: > 29.5 µM

## CC(=O)Oc1ccc(C)c2c1[C@H]1CC[C@]3(C)[C@@H](OC(C)=O)CC[C@H]3[C@@H]1CC2
SW-620 colon
  TGI: 34.4 µM

## Cc1nc2c(n1Cc1ccc(F)cc1)C(=O)c1ccccc1C2=O
M19-MEL melanoma
  TGI: 13.5 µM
DMS 273 small cell lung
  TGI: > 100 µM
SNB-78 CNS
  TGI: > 100 µM
KM20L2 colon
  TGI: > 100 µM
LXFL 529 NSCLC
  TGI: > 100 µM
SW-620 colon
  TGI: > 100 µM
XF 498 CNS
  TGI: > 100 µM

## C=C1C(=O)O[C@H]2C1C[C@H](O)/C(C)=C/CC[C@@]1(C)O[C@H]21 (stereo not given in full)
SW-620 colon
  TGI: 21.6 µM

## CCOC(=O)C12CCC(c3c(C)cccc3C)(O1)C(C(=O)OC)=C2C(=O)OC (stereo not given)
SW-620 colon
  TGI: > 10 µM

## CCN(CC)CCC(=O)Nc1ccc2sc3ccccc3c(=O)c2n1
SW-620 colon
  TGI: 33.9 µM

## CC1=NC(=O)CNN1C1=NNC2(C(=O)N1)c1ccccc1-c1ccccc12
SW-620 colon
  TGI: > 100 µM

## CC1=C(N2CC2)C(=O)C(C)=C(N2CC2)C1=O
M19-MEL melanoma
  TGI: 0.92 µM
DMS 273 small cell lung
  TGI: 1.38 µM
SNB-78 CNS
  TGI: > 100 µM
KM20L2 colon
  TGI: 0.568 µM
LXFL 529 NSCLC
  TGI: 0.431 µM
DMS 114 small cell lung
  TGI: 0.471 µM
DLD-1 colon
  TGI: 0.829 µM
SW-620 colon
  TGI: 3.41 µM
HOP-18 NSCLC
  TGI: 11.4 µM
XF 498 CNS
  TGI: 0.3 µM

## N#C/C(=C\c1ccccc1F)C(=O)c1ccccc1
M19-MEL melanoma
  TGI: > 100 µM
DMS 273 small cell lung
  TGI: > 100 µM
SNB-78 CNS
  TGI: > 100 µM
KM20L2 colon
  TGI: > 100 µM
LXFL 529 NSCLC
  TGI: > 100 µM
DMS 114 small cell lung
  TGI: > 100 µM
SW-620 colon
  TGI: > 100 µM
XF 498 CNS
  TGI: > 100 µM

## CCOC(OCC)[C@@H]1C[C@@H]2N(O[C@H](OC3CCCC3(c3ccccc3)c3ccccc3)[C@H](OC(C)=O)[C@@]2(CC)Cc2ccc(OC)c(OC)c2)O1 (stereo not given in full)
SW-620 colon
  TGI: > 100 µM

## CCOC(=O)Cc1ccc(Nc2nc3cc(F)c(F)cc3nc2C(=O)OCC)cc1
SW-620 colon
  TGI: > 100 µM

## CC(Cn1c(=O)oc2ccccc21)N(C)C (stereo not given)
SW-620 colon
  TGI: > 100 µM

## CN(C)C1(N(C)C)Oc2c(c(=O)n(C)c(=O)n2C)C(c2ccc(F)cc2)C1(F)F (stereo not given)
SW-620 colon
  TGI: > 100 µM

## CC(C)OP(=O)(OC(C)C)/C(=N/Nc1ccc([N+](=O)[O-])cc1)NNC(=O)c1ccccc1
M19-MEL melanoma
  TGI: 41.2 µM
SNB-78 CNS
  TGI: 80.4 µM
KM20L2 colon
  TGI: > 100 µM
LXFL 529 NSCLC
  TGI: 68.5 µM
DMS 114 small cell lung
  TGI: 43.1 µM
DLD-1 colon
  TGI: > 100 µM
SW-620 colon
  TGI: > 100 µM
XF 498 CNS
  TGI: 48.1 µM

## CSc1c(S(C)=O)c2ccccc2n1C (stereo not given)
SW-620 colon
  TGI: > 100 µM

## Cc1ccc(/C=C2\CCS(=O)(=O)c3ccccc3C2=O)cc1
SW-620 colon
  TGI: 47.9 µM

## CCOC(=O)NC(C(F)(F)F)(C(F)(F)F)P(=O)(OCC)OCC
SW-620 colon
  TGI: > 100 µM

## Cc1cc2nc3c(C#N)c4c(c(Cl)n3c2cc1C)CCC4
SW-620 colon
  TGI: 39.3 µM

## CN(CCO)c1nc(=O)c2c(n1C1OC(CO)C(O)C(O)C1O)CCCC2 (stereo not given)
M19-MEL melanoma
  TGI: > 100 µM
DMS 273 small cell lung
  TGI: > 100 µM
SNB-78 CNS
  TGI: > 100 µM
KM20L2 colon
  TGI: > 100 µM
LXFL 529 NSCLC
  TGI: > 100 µM
DMS 114 small cell lung
  TGI: > 100 µM
DLD-1 colon
  TGI: > 100 µM
SW-620 colon
  TGI: > 100 µM
HOP-18 NSCLC
  TGI: > 100 µM
XF 498 CNS
  TGI: > 100 µM

## Cc1cc(S(=O)(=O)Nc2nnc3c(Cl)cc(C(F)(F)F)cn23)c(S)cc1Cl
SW-620 colon
  TGI: > 100 µM

## C[C@@]12C[C@@H](c3ccccc3O1)N1CCCSC1=N2
SW-620 colon
  TGI: > 100 µM

## CCCCCCCC(=O)OC(COC(=O)Cc1ccccc1)COC(=O)C(C)(C)C (stereo not given)
M19-MEL melanoma
  TGI: > 100 µM
DMS 273 small cell lung
  TGI: > 100 µM
KM20L2 colon
  TGI: > 100 µM
LXFL 529 NSCLC
  TGI: > 100 µM
DMS 114 small cell lung
  TGI: > 100 µM
DLD-1 colon
  TGI: > 100 µM
SW-620 colon
  TGI: > 100 µM
HOP-18 NSCLC
  TGI: > 100 µM
RXF-631 renal
  TGI: > 100 µM

## COc1ccc(C(SCCO)(c2ccc(OC)cc2)c2ccc(OC)cc2)cc1
SW-620 colon
  TGI: 81.1 µM
